Drawing on patent publication US7709471B2, “Compounds” (AstraZeneca AB, priority 2006, dated 2010), this text covers IC50 for twelve compounds.

Where only a bound is given, the exact number is not on record here.

One assay deals with recombinant Plk1 (Homo sapiens, UniProt P53350). As to the kind of experiment: In Vitro Plk1 Enzyme Assay (SPA, GST-Cdc25C phosphorylation). The class given is biochemical. As to conditions: ATP 64 nM, 90 minutes, read-out: IC50 (Plk1 enzyme inhibition).
The test system of assay [1] is human colon tumour cell line HT29. Briefly: Cellular Assay (phosphohistone H3 Ser10 mitotic marker, HT29). The class given is cell-based. The settings on record: HT-29, 24 h, HT29 cells, read-out: IC50 (cellular assay, phosphohistone H3).
Experimental: Chromosome condensation in mitosis is accompanied by phosphorylation of histone H3 on serine 10.
After 24 hours, cells were fixed in 3.7% (v/v) formaldehyde then permeabilised and blocked for 10 minutes in 100 μl 0.5% (v/v) Triton X-100, 1% (w/v) bovine serum albumin (BSA) in phosphate buffered saline (PBS). […] The raw assay data were analysed by non-linear regression analysis and used to determine an IC50 value for each compound.

As usually defined, the IC50 is the concentration that gives 50% inhibition.

recombinant Plk1, sequence (P53350 whole entry): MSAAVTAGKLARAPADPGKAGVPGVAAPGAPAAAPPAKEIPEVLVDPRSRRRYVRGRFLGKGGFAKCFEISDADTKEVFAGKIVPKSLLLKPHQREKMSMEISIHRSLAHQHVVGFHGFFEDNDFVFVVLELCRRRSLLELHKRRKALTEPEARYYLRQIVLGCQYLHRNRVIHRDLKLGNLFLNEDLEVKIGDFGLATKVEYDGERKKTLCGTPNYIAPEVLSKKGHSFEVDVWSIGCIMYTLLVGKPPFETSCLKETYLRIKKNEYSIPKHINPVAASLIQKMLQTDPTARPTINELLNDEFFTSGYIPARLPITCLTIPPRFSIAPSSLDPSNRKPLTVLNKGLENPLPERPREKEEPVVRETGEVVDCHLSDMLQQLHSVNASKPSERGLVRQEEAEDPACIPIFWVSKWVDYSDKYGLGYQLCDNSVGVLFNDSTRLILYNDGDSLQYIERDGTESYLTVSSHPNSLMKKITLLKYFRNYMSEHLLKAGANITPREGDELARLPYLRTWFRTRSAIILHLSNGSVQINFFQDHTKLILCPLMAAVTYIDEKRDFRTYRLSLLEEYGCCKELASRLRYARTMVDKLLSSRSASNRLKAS

For the compound `CCc1ccccc1Nc1ncc2c(n1)N(C1CCCC1)CCC(=O)N2C` [Example 143, 6-cyclopentyl-9-[(2-ethylphenyl)amino]-2-methyl-2,6,8,10-tetrazabicyclo[5.4.0]undeca-8,10,12-trien-3-one], the IC50 is less than 1 µM at recombinant Plk1 and less than 30 µM in assay [1].

On to `COc1cc(C(=O)NC2CCCCC2)ccc1Nc1ncc2c(n1)N(CCN1CCOCC1)CCC(=O)N2C` [Example 277, N-cyclohexyl-3-methoxy-4-[[6-methyl-2-(2-morpholin-4-ylethyl)-5-oxo-2,6,9,11-tetrazabicyclo[5.4.0]undeca-7,9,11-trien-10-yl]amino]benzamide], for which the figures for the IC50 (at recombinant Plk1; in assay [1]) were less than 100 µM and less than 30 µM, respectively.

As for `COc1cc(C(=O)NC2CCCN(C)C2)ccc1Nc1ncc2c(n1)N(C1CCCC1)CC(C)(C)C(=O)N2C` (centres unmarked) [Example 243, 4-[(2-cyclopentyl-4,4,6-trimethyl-5-oxo-2,6,9,11-tetrazabicyclo[5.4.0]undeca-7,9,11-trien-10-yl)amino]-3-methoxy-N-(1-methyl-3-piperidyl)benzamide], the results for the IC50 (on recombinant Plk1; in assay [1]) were less than 1 µM and less than 0.3 µM, respectively.

`COc1cc(C(=O)NCCCN2CCOCC2)ccc1Nc1ncc2c(n1)N(C1CCCC1)CCC(=O)N2C` [Example 25, 4-[(6-cyclopentyl-2-methyl-3-oxo-2,6,8,10-tetrazabicyclo[5.4.0]undeca-8,10,12-trien-9-yl)amino]-3-methoxy-N-(3-morpholin-4-ylpropyl)benzamide]: the IC50 (on recombinant Plk1; in assay [1]) was less than 0.3 µM each time.

Regarding `COCCOc1cc(C(=O)NC2CCN(C)CC2)ccc1Nc1ncc2c(n1)N(C1CCCC1)CCC(=O)N2C` [Example 195, 4-[(6-cyclopentyl-2-methyl-3-oxo-2,6,8,10-tetrazabicyclo[5.4.0]undeca-8,10,12-trien-9-yl)amino]-3-(2-methoxyethoxy)-N-(1-methyl-4-piperidyl)benzamide], the IC50 at recombinant Plk1 is less than 1 µM; in assay [1] it was less than 30 µM.

Take `CN1C(=O)CCN(C2CCCC2)c2nc(Nc3ccccc3-c3ccccc3)ncc21` [Example 148, 6-cyclopentyl-2-methyl-9-[(2-phenylphenyl)amino]-2,6,8,10-tetrazabicyclo[5.4.0]undeca-8,10,12-trien-3-one]: the IC50 on recombinant Plk1 was less than 100 µM.

For the compound `CC(C)c1cccc(Nc2ncc3c(n2)N(C2CCCC2)CCC(=O)N3C)c1` [Example 174, 6-cyclopentyl-2-methyl-9-[(3-propan-2-ylphenyl)amino]-2,6,8,10-tetrazabicyclo[5.4.0]undeca-8,10,12-trien-3-one], the IC50 at recombinant Plk1 was less than 100 µM.

Turning to `COc1ccccc1Nc1ncc2c(n1)N(C1CCCC1)CCC(=O)N2C` [Example 139, 6-cyclopentyl-9-[(2-methoxyphenyl)amino]-2-methyl-2,6,8,10-tetrazabicyclo[5.4.0]undeca-8,10,12-trien-3-one], the IC50 at recombinant Plk1 is less than 1 µM.

For `CC(C)NC(=O)c1ccc(Nc2ncc3c(n2)N(C2CCCC2)CCC(=O)N3C)cc1` [Example 100, 4-[(6-cyclopentyl-2-methyl-3-oxo-2,6,8,10-tetrazabicyclo[5.4.0]undeca-8,10,12-trien-9-yl)amino]-N-propan-2-yl-benzamide], the 50% inhibitory concentration (IC50) at recombinant Plk1 is less than 0.3 µM.

On to “6-cyclopentyl-2-methyl-9-[(2,4,6-trimethoxyphenyl)amino]-2,6,8,10-tetrazabicyclo[5.4.0]undeca-8,10,12-trien-3-one [Example 112]”, for which the IC50 at recombinant Plk1 is less than 1 µM.

For the compound `CCNS(=O)(=O)c1ccccc1Nc1ncc2c(n1)N(C1CCCC1)CCC(=O)N2C` [Example 154, 2-[(6-cyclopentyl-2-methyl-3-oxo-2,6,8,10-tetrazabicyclo[5.4.0]undeca-8,10,12-trien-9-yl)amino]-N-ethyl-benzenesulfonamide], the IC50 on recombinant Plk1 is less than 100 µM.

`COc1cc(C(=O)NC2CCN(C)CC2)ccc1Nc1ncc2c(n1)N(c1ccccc1)CCC(=O)N2` [Example 251, 3-methoxy-N-(1-methyl-4-piperidyl)-4-[(3-oxo-6-phenyl-2,6,8,10-tetrazabicyclo[5.4.0]undeca-8,10,12-trien-9-yl)amino]benzamide]: the 50% inhibitory concentration (IC50) on recombinant Plk1 is less than 100 µM.
